{
  "source": "paper PMC12389155",
  "about": "(Pharmaceuticals, 2025)",
  "key": {"MDA-MB-231 cells": {"tested_on": "MDA-MB-231 cells", "assay": "MTT cytotoxicity assay in MDA-MB-231 triple-negative breast cancer cells", "format": "cell-based", "settings": "Homo sapiens, MDA-MB-231, 48 h exposure, ± SEM, read-out: IC50 (cytotoxic activity)", "method": "(§1) The colorectal cancer cell line HCT 116 (ATCC CCL-247) was grown in Roswell Park Memorial Institute 1640 Medium (RPMI, Biochrom Ltd., Cambridge, UK), and the breast cancer cell line MDA-MB-231 (ATCC HTB-26, American Type Culture Collection, Manassas, VA, USA) was maintained in Dulbecco’s Modified Eagle Medium (DMEM, Biochrom Ltd., Cambridge, UK) supplemented with 10% (v/v) fetal bovine serum (FBS, Biochrom Ltd., Cambridge, UK) and 1% (v/v) penicillin-streptomycin (p/s, Biochrom) on tissue-culture-treated flasks. The human fibroblast BJ-5ta cell line (ATCC CRL-2522) was grown in a 4:1 proportion of DMEM:Medium 199 (PAN-Biotech GmbH, Aidenbach, Germany), supplemented with 10% (v/v) FBS, 1% (v/v) p/s, and 0.01% (v/v) hygromycin B (Sigma-Aldrich, St. Louis, MO, USA). All cell lines were authenticated and tested for mycoplasma contamination. Cells were incubated at 37 °C with 5% CO2 and 95% relative humidity. […] Cell counts were determined using a hemocytometer. […]\n(§2) After the incubation period, the culture media was discarded from each well, and 100 µL (0.5 mg/mL) was added. […] Cell viability was determined based on the absorbance measured at 570 nm using a microplate reader (Cytation 3, BioTek Instruments, Winooski, VT, USA). The absorbance of untreated cells or DMSO-treated cells was considered at 100% cell viability. […]"}, "HCT 116 cells": {"tested_on": "HCT 116 cells", "assay": "MTT cytotoxicity assay in HCT 116 colorectal cancer cells", "format": "cell-based", "settings": "Homo sapiens, HCT 116, 48 h exposure, ± SEM, read-out: IC50 (cytotoxic activity)", "method": "as §1, §2"}, "Aqueous solubility": {"assay": "Aqueous solubility", "format": "physicochemical"}, "COR-L23 cells": {"tested_on": "COR-L23 cells", "set-up": "method as in PMID 21366300", "settings": "COR-L23 lung cancer cells; read-out: IC50 nucleoside-nucleobase transport inhibition; cited from earlier work"}, "EGFR": {"tested_on": "EGFR", "set-up": "method as in PMID 22753156, PMID 15199094", "settings": "cited from earlier work"}},
  "data": [
    {"smiles": "O=C(NNc1ncnc2c(Nc3ccc(OC(F)(F)F)cc3)ncnc12)c1ccccc1", "note": "[PP, N’-(8-((4-(Trifluoromethoxy)phenyl)amino)pyrimido[5,4-d]pyrimidin-4-yl)benzohydrazide]", "values": [
      {"measurement": "IC50", "setting": "MDA-MB-231 cells", "value": "5240 ± 240", "unit": "nM"},
      {"measurement": "IC50", "setting": "HCT 116 cells", "value": "2040 ± 450", "unit": "nM"},
      {"measurement": "Solubility in aqueous medium", "setting": "Aqueous solubility", "value": "poor solubility in aqueous medium"}
    ]},
    {"smiles": "COc1ccc(NC(=O)OC(C)CCc2nc(NCc3ccc(OC)c(OC)c3)c3nc(NCC(C)O)nc(CCc4ccc(OC)c(OC)c4)c3n2)cc1", "note": "(stereo not drawn) [V]", "values": [
      {"measurement": "IC50", "setting": "COR-L23 cells", "value": 4, "unit": "nM"}
    ]},
    {"smiles": "COc1ccc(NC(=O)OC(C)CCc2nc(NCc3ccc(OC)c(OC)c3)c3nc(NCC(C)OC(=O)CCC(=O)O)nc(CCc4ccc(OC)c(OC)c4)c3n2)cc1", "note": "(stereo not drawn) [VI]", "values": [
      {"measurement": "IC50", "setting": "COR-L23 cells", "value": 7, "unit": "nM"}
    ]},
    {"smiles": "COc1ccc(CCc2nc(NCC(C)O)nc3c(NCc4ccc(OC)c(OC)c4)nc(CCC(C)OC(=O)Nc4ccccc4)nc23)cc1OC", "note": "(stereo not drawn) [IV]", "values": [
      {"measurement": "IC50", "setting": "COR-L23 cells", "value": 8, "unit": "nM"}
    ]},
    {"smiles": "CCN(CC)CC1CCN(c2ncc3ncnc(Nc4ccc(F)c(Cl)c4)c3n2)CC1", "note": "[compound III]", "values": [
      {"measurement": "Activity as EGFR tyrosine kinase inhibitors", "setting": "EGFR", "value": "nanomolar range"}
    ]},
    {"smiles": "O=c1[nH]cc(F)c(=O)[nH]1", "note": "[5-FU, 5-Fluorouracil]", "values": [
      {"measurement": "IC50", "setting": "MDA-MB-231 cells", "value": "183000 ± 17100", "unit": "nM"},
      {"measurement": "IC50", "setting": "HCT 116 cells", "value": "10400 ± 680", "unit": "nM"}
    ]}
  ]
}
